Data published in US20070259439A1, “Determination of antibiotic concentration in bone” (Wyeth, priority 2006, published 2007).
Several values for one entry are separate records, joined by “and”; a condition that tells them apart may be missing. Equal entries are not always repeated. Where two headings read alike, the source gives them in different places. Marks after values point to notes of the source that are not given here.

Assays:
[1] = Antibiotic bone assay (LC/MS/MS): tigecycline concentration in incurred human bone; type: in vivo
Procedure: Incurred Human Bone: Incurred human bone samples were from Wyeth 3074A1-117-US clinical study. Human bone samples were from the collection of patients who received Tygacil treatment and had bone replacement surgery in 2004. All bone samples were stored at −70° C.
Preparation of incurred human bone sample (incHB) QC sample: Collected large pieces of bone (5-50 g per piece) were immersed in liquid nitrogen in a double thickness 7″×8″ Bitran S series specimen bag and the bone sample was broken into 10 mm or smaller pieces using a steel hammer on a high density polyethylene dissecting borad (11″×13″). The bone pieces were then broken into smaller (approximately 5 mm or less) pieces using a large ceramic mortar and pestle. […]
Calibrators, quality control (QC) samples, and IncRB QC sample (an incurred rat bone sample used as a QC and evaluated multiple times) were prepared as described below. Due to high concentration of oxidant(s) in human bone (incurred and control bone), which can destroy tigecycline before it can be detected after extraction, preparation of calibrators, QCs and incurred samples for human bone require addition of 120 μL of 100 mM L-ascorbic acid solution to the samples (0.1 g) and incubation for 5 minutes at room temperature before adding extraction solvent. […]

[2] = Antibiotic bone assay (LC/MS/MS): tigecycline concentration in incurred rat bone; type: in vivo; settings: for concentration at 4 h: rat, femoral bone (pooled, ground), 3 mg/kg
Procedure: Incurred rat bone was harvested and prepared from rats administered an antibiotic. Two different groups of incurred rat bone were prepared. Group A (n=12) represented bone from rats administered a single dose of tigecycline and Group B (n=19) represented bone from rats administered multiple doses of tigecycline. Group A rats were intravenously administered a single dose of tigecycline at 3 mg/kg. At 4 hours post-dose, the rats were euthanized and the femoral bones were harvested. Group B rats were intravenously administered 3 mg/kg of ^14C-tigecycline, once daily, for 3 days. At 4 hours post-dose, on day 3, the rats were euthanized and the femoral bones were harvested.
Preparation of incurred rat bone sample: To prepare the bone for extraction, two femoral bones from each rat in each group were collected. Femoral bones were cleaned with a saline solution to remove blood and bone marrow. The bones were air-dried and combined to form two pooled samples of incurred rat bone, Group A and Group B. The femoral rat bone pools were ground for approximately 2 minutes in an industrial blender to produce bone particles <1 mm in diameter. The ground, pooled bone sample for each group was stored at −70° C. for later analysis.
Incurred rat bone (IncRB) QC sample: Approximately 0.1 g of IncRB (Group A), which was stored at −70° and thawed, was weighed and dissolved in 1.0 ml of the extraction solvent to create a mixture of bone and solvent. Then, 50 μl of extraction solvent were added to match the volume of working standard solutions added to RBCtrl calibrators or QC samples. For IncHB QC sample, the procedure is similar to rat bone except for using a human incurred bone sample and adding L-ascorbic acid solution prior to adding extraction solvent.
Approximately 100 mg of prepared IncRB and RBCtrl samples (or human control bone or incurred human bone) were accurately weighed and placed into 17×100 mm polypropylene tubes. One hundred twenty μL of stabilizing agent (100 mM ascorbic acid) was added to human bone samples (For the rat bone assay, it was proven that autosampler stability was improved by adding ascorbic acid). One ml of extraction solvent, 50 μl of each tigecycline working standard solution (or 50 μl of methanol for study samples) and 40 μl of working internal standard solution (5000 ng/ml [t-butyl-d9]-tigecycline in methanol) were added to each tube. All sample tubes were vortexed for about 60 seconds. A tissue homogenizing probe was introduced into the mixture (small particles of prepared bone samples in extraction solvent) to further break up the bone particles. The homogenizing probe was operated at a setting of 4 to 5 (˜10,000 rpm) for about 2 minutes until bone particles in the mixture became a cloudy, white homogenous suspension. The probe was removed from the suspension and cleaned between each sample preparation by immersion in 2 ml of water, operating for 30 to 60 seconds, immersion in 2 ml of methanol, operating for 30 to 60 seconds, and wiping dry. Each sample tube containing bone suspension was centrifuged at 3000 rpm, at room temperature, for about 5 minutes. The supernatant (200 μl) was removed and transferred to a 250-μl conical low volume polypropylene autosampler vial and recentrifuged for another 5 minutes before loading into the HPLC autosampler. A 20 μl aliquot of the supernatant was injected onto the LC/MS/MS for tigecycline determination.
Liquid chromatography separation procedures were carried out on a 50×2.0 mm (I.D., 3 μm) HPLC analytical column with a pre-column in-line solvent filer (2.0 μm PEEK filter) and a LC/MS switching valve. PEEK tubing ( 1/16 in.×0.005 in.) connected the separation module, analytical column, LC/MS switching valve, and mass spectrometer. The separation module included a refrigerated autosampler, an in-line degasser, and a quaternary solvent delivery system. The analytical column temperature was approximately 20° C.; autosampler temperature was maintained at 4° C. […]

SMILES: CN(C)c1cc(NC(=O)CNC(C)(C)C)c(O)c2c1C[C@H]1C[C@H]3[C@H](N(C)C)C(O)=C(C(N)=O)C(=O)[C@@]3(O)C(O)=C1C2=O [tigecycline, Tigecycline]
- Tigecycline concentration in incurred human bone samples ([1]; 24 individual samples, study 3074A1-117-US, stored approximately twenty-one months at −70° C.): 492 ng/g (2×) and 550 ng/g and 665 ng/g and 431 ng/g and 628 ng/g and 269 ng/g and 290 ng/g and 335 ng/g and 238 ng/g and 240 ng/g and 433 ng/g and 560 ng/g and 362 ng/g and 491 ng/g and 595 ng/g and 258 ng/g and 323 ng/g and 421 ng/g and 411 ng/g and 626 ng/g and 281 ng/g and 439 ng/g and 794 ng/g
- Inc HB QC sample concentration (incurred human bone) ([1]; patients who received Tygacil, nominal value = mean of 3-day global inter-day validation (n = 15)): 257 ng/g and 257^a ng/g
- Tigecycline concentration in pooled incurred rat bone, Mean ± SD ([2]; Group A, single i.v. dose 3 mg/kg, Day 1, 4 hour, femoral bone pool of 12 rats, 5 replicates): 1048 ± 88^b ng/g
- Tigecycline concentration in pooled incurred rat bone, Mean ± SD ([2]; Group B, multiple dose 3 mg/kg i.v. 14C-tigecycline once daily for 3 days, Day 3, 4 hour, pool of 19 rats, 5 replicates): 3192 ng/g and 3192 ± 93^b ng/g
- concentration at 4 h ([2]; intravenous, Group A, single dose 3 mg/kg, Day 1, 4 hour, measured concentration divided by 0.771, read-out: Corrected Mean Conc. in rat bone): 1360 ng/g
- concentration at 4 h ([2]; intravenous, Group B, multiple dose 3 mg/kg 14C-tigecycline, Day 3, 4 hour, measured concentration divided by 0.771, read-out: Corrected Mean Conc. in rat bone): 4140 ng/g
- concentration at 4 h ([2]; intravenous, IncRB Group B extract used for the bioassay, read-out: Concentration of tigecycline in extracted rat bone sample as determined by LC/MS): 3400 ng/g
- concentration at 4 h ([2]; iv, Group A, single i.v. dose 3 mg/kg, Day 1, 4 hour, femoral bone pool of 12 rats, 5 replicates, read-out: Tigecycline concentration in pooled incurred rat bone, Mean ± SD): 1050 ng/g
- IncRB QC sample concentration (incurred rat bone Group A) ([2]; single i.v. 3 mg/kg, 4 hours post-dose, nominal value = mean of 3-day global inter-day validation (n = 15)): 987 ng/g and 987^a ng/g
